Like-named read-outs stand apart in the source and are kept apart here.
Assay: Pharmacokinetic study of I-11 in female BALB/c mice (Example 4)
Type: in vivo, Balb/c mouse
Details: mouse, plasma; for concentration at 0.25 hr / concentration at 0.5 hr / concentration at 1 hr / concentration at 2 hr / concentration at 4 hr / concentration at 8 hr / concentration at 24 hr / concentration at 0.083 hr: female, BALB/c, po
Method: Pharmacokinetic Study in Female BALB/c Mice: Balb/c mouse, 17-19 g, 8-10 weeks, female, N=27, purchased from JH Laboratory Animal Co. LTD
Fasted overnight and fed at 4 hr post dosing.
Animals dosed with sampling at 0.083, 0.25, 0.5, 1, 2, 4, 8, 24 hr post dose. 8 time points. Semi-serial bleeding for plasma only. The animals were restrained manually at the designated time points. Approx. 110 μL of blood/time point was taken from the animals via facial vein into tubes with K2EDTA. Blood sample was centrifuged at 4° C. (2000 g, 5 min) to obtain plasma within 15 m after sample collection. Put on wet ice, then plasma samples were stored at approximately −70° C. until analysis.
For oral gavage, compound was dosed as a suspension in […] carboxymethyl cellulose (CMC), 0.2% Tween 80 in water. Compound was orally dosed at 50 mg/Kg, at 100 mg/Kg.
For IV dosing, compound was dissolved into a solution of […], […] HS 15 and 90% Saline. Compound was IV dosed at 5 mg/Kg.
Plasma samples were analyzed for I-11 using LC-MS using a calibration curve of known concentrations.
FIG. 1 describes the mean plasma concentration-time profiles of I-11 after single IV dose of 5 mg/kg, PO dose of 50 mg/kg and 100 mg/kg in female Balb/c mice (N=3/time point). • Note: • 1. […] The IV dosing solutions were prepared in 5% DMSO+5% Solutol HS15+90% Saline. The PO dosing solutions were prepared in 1% CMC-Na+0.2% Tween 80 in water. • 3. BQL=Below quantifiable limit of 3.00 ng/mL for I-11 in female Balb/c mouse plasma samples. • 4. PK parameters were estimated by non-compartmental model using WinNonlin 8.2. If the adjusted rsq (linear regression coefficient of the concentration value on the terminal phase) is less than 0.9, T1/2 might not be accurately estimated. • 5. F value was determined by the following equation: • If AUClast/AUCINF>80%:
F=(AUCINF-EX×DOSEIV)/(AUCINF-IV×DOSEEX)[…] • If AUClast/AUCINF<80% or AUCINF not available:
F=([…])/(AUClast-IV×DOSEEX)[…] • 6. NA: Not available.

[1] = 50 mg/kg, PO 50 mg/kg, read-out: Plasma concentration Mean
[2] = 50 mg/kg, PO 50 mg/kg, read-out: Plasma concentration Individual
[3] = 100 mg/kg, PO 100 mg/kg, read-out: Plasma concentration Individual
[4] = 100 mg/kg, PO 100 mg/kg, read-out: Plasma concentration Mean

concentration at 0.25 hr [1]: 1760 ng/mL
concentration at 0.5 hr [2]: 3830 ng/mL
concentration at 0.5 hr [1]: 5850 ng/mL
concentration at 1 hr [2]: 8760 ng/mL
concentration at 1 hr [1]: 7120 ng/mL
concentration at 2 hr [2]: 7260 ng/mL
concentration at 2 hr [1]: 6310 ng/mL
concentration at 4 hr [2]: 1170 ng/mL
concentration at 4 hr [1]: 1730 ng/mL
concentration at 8 hr [2]: 367 ng/mL
concentration at 8 hr [1]: 314 ng/mL
concentration at 24 hr (50 mg/kg, PO 50 mg/kg): 83.3 ng/mL
concentration at 0.083 hr [3]: 188 ng/mL
concentration at 0.083 hr [4]: 246 ng/mL
concentration at 0.25 hr [3]: 2690 ng/mL
concentration at 0.25 hr [4]: 2790 ng/mL
concentration at 0.5 hr [4]: 7820 ng/mL
concentration at 1 hr [3]: 8840 ng/mL
concentration at 1 hr [4]: 7530 ng/mL
concentration at 2 hr [3]: 18600 ng/mL
concentration at 2 hr [4]: 15000 ng/mL
concentration at 4 hr [4]: 8190 ng/mL
concentration at 8 hr [4]: 633 ng/mL
concentration at 24 hr (100 mg/kg, PO 100 mg/kg): 60.8 ng/mL
AUC(0-inf) (IV 5 mg/kg): 5280 ng·h/mL
AUC(0-t) (IV 5 mg/kg): 5220 ng·h/mL
C0 (IV 5 mg/kg): 13600 ng/mL
MRT inf (IV 5 mg/kg): 0.73 h
MRT last (IV 5 mg/kg): 0.594 h
half-life (IV 5 mg/kg): 2.28 h
Vd (IV 5 mg/kg, read-out: Vss): 0.69 L/kg
AUC(0-inf) (PO 50 mg/kg): 26900 ng·h/mL
AUC(0-t) (PO 50 mg/kg): 26400 ng·h/mL
Cmax (PO 50 mg/kg): 7120 ng/mL
MRT inf (PO 50 mg/kg): 3.79 h
MRT last (PO 50 mg/kg): 3.31 h
Tmax (PO 50 mg/kg): 1 h
half-life (PO 50 mg/kg): 4.05 h
AUC(0-inf) (PO 100 mg/kg): 63400 ng·h/mL
AUC(0-t) (PO 100 mg/kg): 63100 ng·h/mL
Cmax (PO 100 mg/kg): 15000 ng/mL
MRT inf (PO 100 mg/kg): 3.49 h
MRT last (PO 100 mg/kg): 3.37 h
Tmax (PO 100 mg/kg): 2 h
half-life (PO 100 mg/kg): 3.19 h
Compound: CC(C)Cc1sc(Nc2ncc(-c3cccs3)cc2C(=O)O)nc1C(C)(C)C [Compound I-11]
